Molecular target: T1, Polε (WT holoenzyme) (Saccharomyces cerevisiae, UniProt P21951)
T1 construct: gene POL2; four-subunit holoenzyme, GST tag on Pol2 cut with PreScission protease, gel filtration, expressed in yeast YRP654; with DNA polymerase epsilon subunit B; DNA polymerase epsilon subunit C; DNA polymerase epsilon subunit D
Test: gel-based primer extension, […]-labeled primer
Assay type: biochemical
Details: 50 μM dCTP running start opposite a run of 5 template G; 5 mM MgCl2, pH 7.5, 30 °C

T1 sequence (P21951 whole entry): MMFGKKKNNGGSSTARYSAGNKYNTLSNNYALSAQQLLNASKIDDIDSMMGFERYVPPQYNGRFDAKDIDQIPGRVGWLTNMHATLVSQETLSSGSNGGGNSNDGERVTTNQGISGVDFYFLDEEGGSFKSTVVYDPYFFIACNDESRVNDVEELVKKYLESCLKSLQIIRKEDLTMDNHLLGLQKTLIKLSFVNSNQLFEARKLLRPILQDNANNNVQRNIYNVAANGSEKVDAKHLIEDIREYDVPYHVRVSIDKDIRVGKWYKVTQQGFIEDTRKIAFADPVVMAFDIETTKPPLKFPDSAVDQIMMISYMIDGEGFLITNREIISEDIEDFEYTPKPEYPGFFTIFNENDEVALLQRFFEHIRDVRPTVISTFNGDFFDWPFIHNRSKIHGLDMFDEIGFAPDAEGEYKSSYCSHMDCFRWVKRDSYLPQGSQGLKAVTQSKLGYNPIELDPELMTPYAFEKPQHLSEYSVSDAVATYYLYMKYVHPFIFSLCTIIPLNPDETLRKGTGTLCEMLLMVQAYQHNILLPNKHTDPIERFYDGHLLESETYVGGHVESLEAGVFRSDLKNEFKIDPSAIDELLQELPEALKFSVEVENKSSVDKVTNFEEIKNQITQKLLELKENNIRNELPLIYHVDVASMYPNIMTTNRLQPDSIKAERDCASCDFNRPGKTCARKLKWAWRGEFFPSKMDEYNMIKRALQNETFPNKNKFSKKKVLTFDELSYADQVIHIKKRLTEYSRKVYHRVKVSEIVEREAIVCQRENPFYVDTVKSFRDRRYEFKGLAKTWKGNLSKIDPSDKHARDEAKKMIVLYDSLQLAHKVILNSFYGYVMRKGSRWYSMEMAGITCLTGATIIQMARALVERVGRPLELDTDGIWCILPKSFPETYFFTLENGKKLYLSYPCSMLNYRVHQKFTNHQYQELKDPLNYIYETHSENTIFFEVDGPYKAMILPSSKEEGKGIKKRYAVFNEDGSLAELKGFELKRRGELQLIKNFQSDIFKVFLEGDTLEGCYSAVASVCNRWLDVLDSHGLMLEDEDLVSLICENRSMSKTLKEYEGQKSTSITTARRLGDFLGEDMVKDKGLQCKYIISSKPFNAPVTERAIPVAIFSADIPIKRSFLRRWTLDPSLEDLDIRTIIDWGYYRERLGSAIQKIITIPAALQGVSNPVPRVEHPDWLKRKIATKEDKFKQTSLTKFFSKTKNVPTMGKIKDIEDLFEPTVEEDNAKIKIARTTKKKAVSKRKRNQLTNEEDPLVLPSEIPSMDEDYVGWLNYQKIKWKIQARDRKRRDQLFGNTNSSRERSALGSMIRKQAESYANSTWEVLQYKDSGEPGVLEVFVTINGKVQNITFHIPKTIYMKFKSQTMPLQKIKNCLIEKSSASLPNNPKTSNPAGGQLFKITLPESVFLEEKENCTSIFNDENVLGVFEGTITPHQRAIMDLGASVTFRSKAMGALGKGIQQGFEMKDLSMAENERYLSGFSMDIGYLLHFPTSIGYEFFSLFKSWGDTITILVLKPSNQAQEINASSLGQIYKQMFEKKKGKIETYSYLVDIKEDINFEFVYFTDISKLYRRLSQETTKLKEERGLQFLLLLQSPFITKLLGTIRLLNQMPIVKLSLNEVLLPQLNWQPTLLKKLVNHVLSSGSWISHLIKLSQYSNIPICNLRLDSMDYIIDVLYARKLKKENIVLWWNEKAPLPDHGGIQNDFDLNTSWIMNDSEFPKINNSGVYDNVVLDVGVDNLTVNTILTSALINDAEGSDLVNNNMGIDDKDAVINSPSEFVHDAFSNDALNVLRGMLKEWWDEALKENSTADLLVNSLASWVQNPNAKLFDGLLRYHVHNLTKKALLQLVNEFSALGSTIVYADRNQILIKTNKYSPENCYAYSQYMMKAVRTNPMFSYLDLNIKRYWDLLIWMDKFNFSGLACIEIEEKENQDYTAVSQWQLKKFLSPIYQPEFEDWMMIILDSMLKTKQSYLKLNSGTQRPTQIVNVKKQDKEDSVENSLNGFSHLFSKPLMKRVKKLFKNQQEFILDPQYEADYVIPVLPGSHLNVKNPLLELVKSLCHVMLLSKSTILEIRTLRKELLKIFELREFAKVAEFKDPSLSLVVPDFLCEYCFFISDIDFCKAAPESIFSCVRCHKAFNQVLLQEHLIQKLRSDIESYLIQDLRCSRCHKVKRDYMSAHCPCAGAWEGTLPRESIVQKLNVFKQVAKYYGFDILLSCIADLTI
T1 sequence (P24482 whole entry partner): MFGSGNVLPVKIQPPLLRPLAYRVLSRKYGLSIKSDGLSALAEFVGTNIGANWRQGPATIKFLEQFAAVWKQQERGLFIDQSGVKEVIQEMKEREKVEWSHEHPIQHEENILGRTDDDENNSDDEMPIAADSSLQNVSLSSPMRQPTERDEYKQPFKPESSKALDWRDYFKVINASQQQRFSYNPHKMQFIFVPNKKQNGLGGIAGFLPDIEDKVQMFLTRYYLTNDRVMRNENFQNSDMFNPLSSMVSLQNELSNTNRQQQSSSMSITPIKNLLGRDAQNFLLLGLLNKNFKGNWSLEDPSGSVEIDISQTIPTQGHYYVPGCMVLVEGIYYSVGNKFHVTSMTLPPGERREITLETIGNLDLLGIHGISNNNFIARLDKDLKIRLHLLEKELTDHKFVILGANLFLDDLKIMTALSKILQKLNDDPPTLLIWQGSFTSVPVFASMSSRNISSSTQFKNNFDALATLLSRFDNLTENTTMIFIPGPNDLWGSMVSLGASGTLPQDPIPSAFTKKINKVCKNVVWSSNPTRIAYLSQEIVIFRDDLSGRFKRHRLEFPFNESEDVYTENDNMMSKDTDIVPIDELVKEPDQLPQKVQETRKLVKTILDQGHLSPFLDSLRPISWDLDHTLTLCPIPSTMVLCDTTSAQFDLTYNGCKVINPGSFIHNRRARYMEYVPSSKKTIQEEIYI
T1 sequence (P27344 whole entry partner): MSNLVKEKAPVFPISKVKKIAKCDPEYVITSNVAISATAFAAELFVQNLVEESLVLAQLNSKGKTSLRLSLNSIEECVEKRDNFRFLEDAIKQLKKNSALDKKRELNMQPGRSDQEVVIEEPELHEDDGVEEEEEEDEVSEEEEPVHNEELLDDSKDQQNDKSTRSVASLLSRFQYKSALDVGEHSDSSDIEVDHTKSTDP
T1 sequence (Q04603 whole entry partner): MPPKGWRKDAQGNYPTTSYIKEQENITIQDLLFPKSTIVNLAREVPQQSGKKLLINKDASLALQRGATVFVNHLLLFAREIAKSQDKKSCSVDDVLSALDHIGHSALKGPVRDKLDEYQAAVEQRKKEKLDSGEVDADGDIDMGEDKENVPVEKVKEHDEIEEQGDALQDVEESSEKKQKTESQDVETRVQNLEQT

With Nc1ccn([C@H]2C[C@H](O)[C@@H](COP(=O)(O)OP(=O)(O)OP(=O)(O)O)O2)c(=O)n1 [dCTP] the “gel-based primer extension, 32P-labeled primer” value was “dCTP was added to initiate DNA synthesis opposite the template G residues”.

— paper PMC9791402, “Yeast 9-1-1 complex acts as a sliding clamp for DNA synthesis by DNA polymerase ε” (The Journal of Biological Chemistry, 2022)
